Test results reported in patent publication US9718794B2, “Crystalline forms of tyrosine kinase inhibitors and their salts” (Purdue Pharma L.P., priority 2013, dated 2017).

Tests used:
[1] = target: T1, TrkA (human full length) (Homo sapiens, UniProt P04629); assay: PathHunter whole cell functional assay, NGF stimulated TrkA activation (U2OS); assay type: cell-based; conditions: U2OS PathHunter cells, mean of triplicate; read-out: cellular IC50, NGF stimulated TrkA activation
T1 construct: expressed recombinantly on the intracellular C-terminus of TrkA (human full length); host or cells: U2OS
T1 sequence (P04629 33-796): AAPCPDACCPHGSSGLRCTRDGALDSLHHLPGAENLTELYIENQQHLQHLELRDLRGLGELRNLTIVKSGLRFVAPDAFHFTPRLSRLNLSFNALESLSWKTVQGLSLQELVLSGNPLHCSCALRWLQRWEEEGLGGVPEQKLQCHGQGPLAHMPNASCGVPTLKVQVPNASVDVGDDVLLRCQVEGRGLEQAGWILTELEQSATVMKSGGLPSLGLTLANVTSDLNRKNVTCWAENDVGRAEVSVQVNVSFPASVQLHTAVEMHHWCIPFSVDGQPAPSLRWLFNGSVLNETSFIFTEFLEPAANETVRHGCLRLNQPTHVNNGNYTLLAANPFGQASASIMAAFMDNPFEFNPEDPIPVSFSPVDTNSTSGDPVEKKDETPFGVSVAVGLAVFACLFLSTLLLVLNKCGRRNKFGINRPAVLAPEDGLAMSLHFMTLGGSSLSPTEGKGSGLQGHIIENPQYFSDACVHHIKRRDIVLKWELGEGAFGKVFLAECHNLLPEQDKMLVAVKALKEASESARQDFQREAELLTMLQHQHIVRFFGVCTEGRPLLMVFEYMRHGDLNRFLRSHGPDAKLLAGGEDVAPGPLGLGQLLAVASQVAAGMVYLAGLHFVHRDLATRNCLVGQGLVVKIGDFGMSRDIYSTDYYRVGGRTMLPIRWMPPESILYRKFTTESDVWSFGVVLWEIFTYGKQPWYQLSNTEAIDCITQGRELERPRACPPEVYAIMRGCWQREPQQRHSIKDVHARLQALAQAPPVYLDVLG
Text: Compound inhibition in a live, whole cell based functional assay: There are several methods to measure whole length TrkA activation stimulated by its natural ligand or agonist NGF in live cells. For example, the PathHunter Profiling services offered by DiscoveRx (Fremont, Calif.). The PathHunter technology is an adaptation of enzyme fragment complementation that provides a novel, generic functional cell-based assay format for detecting protein-protein interaction. In this cell-based assay approach, with U2OS cell background, a small peptide epitope (PK) is expressed recombinantly on the intracellular C-terminus of TrkA (human full length). This is co-expressed with a larger sequence, termed enzyme acceptor (EA) that is attached to a cytoplasmic protein SHC1 which will interact with TrkA intracellularly. NGF induced activation of TrkA receptor causes either homo- or hetero-dimerization of TrkA resulting in cross-phosphorylation. The SHC1-EA fusion protein then binds the phosphorylated TrkA receptor forcing complementation of the PK and EA fragment. This interaction generates an active beta-galactosidase enzyme, which is detected using a chemiluminescent substrate.

[2] = Accelerated stability test (XRPD and Raman); assay type: physicochemical; conditions: 1 week
Experimental: X-ray Powder Diffraction (XRPD). Approximately 2 mg of sample was gently compressed on the XRPD zero back ground single obliquely cut silica sample holder. The sample was then loaded into a D/MAX 2200 X-ray powder diffractometer (Rigaku) or a Philips X-Pert MPD diffractometer and analyzed using the following experimental conditions (Tube anode: Cu; Generator tension: 40 kV; Tube current: 40 mA; Wavelength alphal: 1.54056 Å; Wavelength alpha2: 1.5444 Å; Start angle [2 theta]: 5; End angle [2 theta]: 50; and Continuous scan). For suspected novel forms a slightly slower scan speed was used over a range of 4-40°2θ.
Raman spectroscopy. Samples were analyzed by a Nicolet Almega XR Dispersive Raman Microscope for its Raman spectrum using the following conditions (Exposure Time: 1.0 s; Acquisition No: 10; Pinhole Size: 25, 50 or 100 μm; Wavelength range: 2000˜300 cm^−1 (single grating); Laser: He-Ne 780 nm 100% power; Objective: 20×/0.40 or 50×/0.75 (magnifier/numerical aperture number)). Then the measured Raman spectra were corrected by baseline subtraction using the software OMNIC™v7.3.

[3] = test system: CCI neuropathic pain (mechanical allodynia); assay: Chronic constriction injury (CCI) model of neuropathic pain in rat; assay type: in vivo; conditions: for observed side effects in dosed CCI-rats: single oral dose
Text: Chronic Constriction Injury (CCI) Model of Neuropathic Pain in Rat. The CCI model is one of the most commonly used mono-neuropathic pain model firstly described in details by Bennett and Xie (Bennett CJ, Xie YK. Pain. 1988;33(1):87-107). It mimics important clinical chronic pain symptoms such as mechanical allodynia and thermal hyperalgesia, Chronic constriction injury of the sciatic nerve was produced by tying four loose ligatures around the left sciatic nerve according to the method of Bennett and. Xie. […] Calibrated von Frey filaments were used to determine the lowest mechanical (tactile) threshold required to evoke a brisk paw withdrawal reflex in the rat hindpaws. Rats were allowed to acclimatize in wire mesh cages for 15-20 min prior to von Frey testing. Assessment of paw withdrawal thresholds (PWTs) using von Frey filaments was undertaken prior to CCI-surgery (pre-surgery baseline on day 0). Before the drug dosing on day 14, the pre-dose baseline was recorded for each rat. […] Drug-naïve CCI-rats (n=4 - 6 per group) were used. The oral (PO) gavage vehicle was either 10% (w/v) Povidone K25 in water for PO dosing, or 18% (w/v) CrosPovidone in water for PO dosing, or 0.5% CMC-Na/0.1% Tween 80in distilled water for PO dosing. The positive control gabapentin was dissolved in the vehicle and orally given at 100 mg/kg (by oral gavage). Test article was dissolved or suspended in the vehicle and orally given at 25, 50, 100 and 150 mg/kg. Each CCI-rat was administered a single oral dose of test article, gabapentin or vehicle control, 2 hours before assessment of PWT.

[4] = Rat pharmacokinetics (IV and PO, plasma); assay type: in vivo; conditions: male, CD IGS, PO 100 mg/kg, mean
Experimental: Rat Pharmacokinetics. Compound I was dosed to nonfasted male CD IGS rats (weighting 180-250 g, Charles River Laboratories) by single intravenous (IV, n=3/group) or oral gavage (PO, n=4/group, including control rat group for drug-free blood and brain collection) administration at a nominal dose levels of 3 mg/kg (IV) or 5 mg/kg (IV) and 10, 50, 100 mg/kg (PO) respectively. Compound was formulated in either DMSO/Solutol® HS 15/phosphate buffered saline, pH 7.4 (PBS) for both IV and PO dosing, or 10% (w/v) Povidone K12 in water for IV dosing or 10% (w/v) Povidone K25 in water for PO dosing, or 18% (w/v) CrosPovidone in water for PO dosing. An intravenous profile was obtained by taking serial or terminal blood samples at 3, 10, 30, 60, 120, 240, 360, 1440 min post dose. An oral profile was obtained by taking serial or terminal blood samples at 10, 30, 60, 120, 240, 360, 480, 1440 min post dose.
Plasma Sample Collection from Rats. Animals were sedated under general inhalant anesthesia (3% isoflurane) for blood collection by cardiac puncture. […]
Plasma and brain samples were subjected to quantitative analysis by LC-MS/MS using compound-specific mass transitions. […] The concentrations of the test compound in brain (ng/g brain tissue) and in plasma (ng/mL) as well as the ratio of the brain concentration and the plasma concentration at each time point were determined and reported.

[5] = test system: SNL neuropathic pain (mechanical allodynia); assay: Spinal nerve ligation (SNL) mono-neuropathic pain model in rat; assay type: in vivo; conditions: SNL rats, oral administration
Experimental: Spinal Nerve Ligation (SNL) Mono-Neuropathic Pain Model in Rat. The surgical procedure will be performed according to the method firstly described by Kim and Chung (Kim SH, Chung JM. Pain. 1992;50(3):355-63.). This procedure will result in tactile allodynia in the left hindpaw. […] The dose-reverse anti-allodynia effects of test compound: on day 14 after surgery, rats were treated with test article at one of four doses, vehicle or positive control by oral gavage, and PWT was determined by calibrated von Frey filaments at time points of 0 (right before the drug dosing, Pre-Dose Baseline), 0.5, 1, 2, 4 and 6 hr. The anti-allodynia effects of repeated administration of test article: Administration of test article was started on day 7 after surgery, once a day for 7 days. PWT was determined by calibrated von Frey filaments, 2 hour after test article dosing each day. After 7 days dosing, the measurement were continued, every other day without compound dosing for another 7 days. PWT was determined at the time points as given above.

[6] = test system: CFA-induced inflammatory pain; assay: Rat CFA-induced inflammatory pain model; assay type: in vivo; conditions: 50 μL of 1 mM s.c. into the paw 3 hours after CFA
Experimental: Rat CFA-induced Inflammatory Pain Model. Hyperalgesia was induced by subcutaneously injecting 50 μL of CFA (Sigma-Aldrich, St. Louis, Mo., USA) into the plantar surface of the left hind paw of the rats using a 30-gauge hypodermic needle under sevoflurane anesthesia. The classical signs of inflammation, including edema and redness, for up the last day of tests were recorded. To assess the effect of test article on CFA-induced inflammatory pain, the rats were anesthetized with sevoflurane 3 hours after CFA injection and then injected 50 μL of either 1 mM test article (n=6) or Saline (n=4) subcutaneously (S.C.) into the same site as the CFA injection, using a 30-gauge hypodermic needle under sevoflurane anesthesia, according to published method (Ueda K., et al, J Pharmacol. Sci., 2010; 112(4):438-43). Paw withdrawal latencies (thermal hyperalgesia) are measured before and at […] 2, 4, and 7 days after CFA injection. Mechanical thresholds were also measured in the same way with either Formula 1 compound (n=6) or Saline (n=4) at similar different time points (for example, 1, 3 hour and 3 days). The noxious heat and mechanical thresholds were separately measured in each group of rats. The threshold was measured 3-5 times in each rat and then averaged.

O=C(O)c1ccc(Nc2cc(N3CCN(C4CCCCC4)CC3)c3noc4c3c2C(=O)c2ccccc2-4)cc1 [Compound C]
IC50 [1]: ~0.05 µM

O=C([O-])c1ccc(Nc2cc(N3CCN(C4CCCCC4)CC3)c3noc4c3c2C(=O)c2ccccc2-4)cc1.[Na+] [Compound I, Sodium 4-((3-(4-cyclohexylpiperazin-1-yl)-6-oxo-6H-anthra[1,9-cd]isoxazol-5-yl)amino)benzoate]
stability by XRPD and Raman ([2]; 40° C./75% RH): no instability
stability by XRPD and Raman ([2]; 80° C.): no instability
effect on mechanical allodynia (FIG. 2) ([3]; CCI rats, single oral dose 25, 50, 100 and 150 mg/kg, PWT 2 hours after dosing): significantly reduced mechanical allodynia
observed side effects in dosed CCI-rats [3]: no such effect or other abnormality was observed
bioavailability [4]: ~100%
effect on mechanical allodynia [5]: significantly reduced mechanical allodynia
analgesic effect (FIG. 1) [6]: efficacious in relieving the pain

NCC1(CC(=O)O)CCCCC1 [gabapentin, reference compound]
observed side effects in dosed CCI-rats [3]: drowsiness or motor incoordination
